According to patent US20130344106A1, “Methods and Compositions for Improving Immune Response by a Nutraceutical Antioxidant” (priority 2008, published 2013):
“Also recorded” adds a separate entry of the source.

Key:
Nrf2 = conditions: old rats; cited from earlier work
[1] = tested on: old female C57BL/6 (B6) mice; conditions: SFN gavage
Text: (§1) Young (2-4 months) and old (19-22 mouths) female C57BL/6 (B6) mice were obtained from the Jackson Laboratory and the National Institute of Aging colony (Bethesda, Md.), respectively. Nrf2^+/+ and nrf2^−/− mice, which were initially obtained from Dr. Y. Kan (Chan and Kan, Proc Natl Acad Sci USA, 96:1231-6 (1997)), were backcrossed onto a C57BL/6 background for 7 generations.
Oxazalone (OXA; 3%), dissolved in 100% ethanol, was applied on the shaved mouse abdomen on day 0. Control animals were exposed to vehicle alone. Six days after sensitization, mice were challenged on both sides of both ears by means of epicutaneous application of 20 μL of a 1% OXA solution (Gaspari and Katz, Current Protocols in immunology, John Wiley & Sons (Hoboken, N.J., 2003)). 2,4-Dinitro-1-fluambenzene (DNFB) sensitization was accomplished by the application of 0.5% of the chemical dissolved in 4:1 acetone/olive oil onto the shaved abdomen (days 0 and 1). On day 5, mice were challenged by means of epicutaneous application of 0.2% DNFB on both ears. Ear thickness was measured before and 24 and 48 hours after challenge by using a dial thickness gauge (Mitutoyo, Japan). Mice were killed 48 hours after challenge, and ear tissues were removed for RNA extraction and cytokine message expression, as well as for hematoxylin and eosin staining. […]

IFN-γ mRNA = conditions: old mice; SFN gavage; 48 hours after DNFB challenge
Experimental: (§2) Oxazalone (OXA; 3%), dissolved in 100% ethanol, was applied on the shaved mouse abdomen on day 0. Control animals were exposed to vehicle alone. Six days after sensitization, mice were challenged on both sides of both ears by means of epicutaneous application of 20 μL of a 1% OXA solution (Gaspari and Katz, Current Protocols in immunology, John Wiley & Sons (Hoboken, N.J., 2003)). 2,4-Dinitro-1-fluambenzene (DNFB) sensitization was accomplished by the application of 0.5% of the chemical dissolved in 4:1 acetone/olive oil onto the shaved abdomen (days 0 and 1). On day 5, mice were challenged by means of epicutaneous application of 0.2% DNFB on both ears. Ear thickness was measured before and 24 and 48 hours after challenge by using a dial thickness gauge (Mitutoyo, Japan). Mice were killed 48 hours after challenge, and ear tissues were removed for RNA extraction and cytokine message expression, as well as for hematoxylin and eosin staining.
(§3) Total RNA was extracted from DCs or tissues by using the RNeasy Mini Kit (Qiagen, Inc, Valencia, Calif.), according to the manufacturer's recommendations. Contaminating DNA was removed with a DNA-free kit (Ambion, Inc, Austin, Tex.). Total RNA was spectrophotometrically quantitated. A 1 μg RNA sample was reverse transcribed by using the iScriptTMcDNA Synthesis Kit (Bio-Rad Laboratories, Hercules, Calif.). The cDNA templates were stored at −40° C.
(§4) PCR was carried out with an iQTM SYBR Green Supermix (Bio-Rad Laboratories) by using an iCycler (Bio-Rad Laboratories), according to the manufacturer's instructions. The sequences for the primers for IFN-γ, IL-4, T-bet, heme oxygenase 1, Nrf2, NQO1, glutathione S-transferase, GCLS, GPx, and β-actin are summarized in Table 1. The final PCR mixture contained 1 μL of cDNA template and 400 nM of the forward and reverse primers in a final volume of 25 μL. […]
(§5) IFN-γ and IL-4 message levels were measured in the ear tissues that were taken 48 hours after challenge to determine whether the induction of the CHS response is accompanied by polarized T cell differentiation.

IL-4 mRNA = conditions: old mice; SFN gavage; 48 hours after DNFB challenge
Experimental: as §2, §3, §4, §5

T-bet mRNA = conditions: old versus young sensitized animals; SFN gavage; DNFB challenge
Experimental: as §2, §3, §4, §5

GATA-3 = conditions: SFN gavage; DNFB challenge
Experimental: as §5

[2] = tested on: p2Es (NQO1, glutathione S-transferase, γ-GCLS, and GPx) mRNA; conditions: SFN administration versus livers of control animals
Experimental: (§6) SFN (9 μmol/d per mouse) in 0.2 mL, of corn oil was administered by means of gavage on consecutive days. The control group received corn oil alone. Pretreatment with SFN or corn oil commenced 5 days before and was carried through until the performance of the antigen challenge (i.e., 11 days total).
as §3
as §4, with “μL. Samples were run concurrently with a standard curve prepared from the PCR products. Serial dilutions were performed to obtain appropriate template concentrations.” for “μL.”

[3] = SFN administration by gavage
Experimental: as §1, §6

BM-DCs from old mice = test: CHS response by adoptive transfer of DNBS-pulsed BM-DCs treated ex vivo; type: in vivo, mouse; conditions: DNFB challenge of young recipients
Experimental: For sensitization (day 0), 0.5×10^6 DNBS-treated DCs were injected subcutaneously with 100 μL of saline into the flanks of recipient mice. Five days later, mice were challenged by means of DNFB application to the ear. Mice injected with the same number of unmodified DCs or mock treated and challenged with vehicle alone served as negative controls.

NQO1 mRNA = conditions: BM-DCs from old animals; SFN 5 μmol/L for 24 hours; P<0.001
Experimental: (§7) FIG. 9. […] A. Total RNA was extracted from CD11c^+ BM-DCs to perform real-time PCR for p2E.
as §3
(§8) PCR was carried out with an iQTM SYBR Green Supermix (Bio-Rad Laboratories) by using an iCycler (Bio-Rad Laboratories), according to the manufacturer's instructions. The sequences for the primers for IFN-γ, IL-4, T-bet, heme oxygenase 1, Nrf2, NQO1, glutathione S-transferase, GCLS, GPx, and β-actin are summarized in Table 1. The final PCR mixture contained 1 μL of cDNA template and 400 nM of the forward and reverse primers in a final volume of 25 μL. Samples were run concurrently with a standard curve prepared from the PCR products. Serial dilutions were performed to obtain appropriate template concentrations. B-Actin was used as a reference gene for the recovery of RNA, as well as reverse transcription efficiency. Melting curve analysis was used to confirm specific replicon formation.

heme oxygenase 1 mRNA = conditions: BM-DCs from old animals; SFN 5 μmol/L for 24 hours; P<0.05
Experimental: as §7, §3, §8

γ-GCLS mRNA = conditions: BM-DCs from old animals; SFN 5 μmol/L for 24 hours; P<0.05
Experimental: as §7, §3, §8

[4] = tested on: Nrf2-mediated phase II enzyme (p2E) gene expression; conditions: absent in Nrf2-deficient animals; recent studies; cited from earlier work
CD11c+ BM-DCs = test: MBB staining and flow cytometry of cellular thiol in BM-DCs; conditions: P<0.05
OXA-treated BALB/c mice = conditions: Särnstrand et al.; cited from earlier work
BALB/c mice = conditions: orally administered 1.6 g/kg, Senaldi et al.; cited from earlier work
cellular proteins = conditions: NAC at the time of TNCB sensitization; Bruchhausen et al.; cited from earlier work

O=C(O)CCCCC1CCSS1 (stereo not drawn) [α-lipoic acid]
nuclear Nrf2 levels, γ-CLC expression and GSH production (Nrf2): increase nuclear Nrf2 levels in parallel with increased γ-CLC expression and GSH production

C[S+]([O-])CCCCN=C=S (centres unmarked) [SFN, sulforaphane]
ear-swelling response in nonsensitized (control) animals ([1]; nonsensitized control animals): no effect | decrease in lymphocyte infiltration and intercellular edema in ear (hematoxylin and eosin) ([1]; old mice, ear histology 48 hours after challenge): could be reversed | IFN-γ message level in ear tissue (IFN-γ mRNA): significantly increased | IL-4 message level in ear tissue (IL-4 mRNA): not significantly affected | T-bet message level in ear tissue (T-bet mRNA): prevented this decrease to a significant degree | expression of GATA-3 (GATA-3): Neither aging nor SFN treatment had an effect | p2E mRNA levels in liver (NQO1, glutathione S-transferase, γ-GCLS, GPx) [2]: message levels for 3 of the 4 genes were increased | effects on overall well-being or body weight [3]: Neither the CHS procedure nor SFN administration had any effects | CHS response in recipients of DNBS-pulsed DCs from old animals (BM-DCs from old mice; ex vivo SFN treatment of BM-DCs (5 μM for 24 hours)): could restore the CHS response; also recorded: reverses the age-related decrease in the CHS response | NQO1 mRNA level (NQO1 mRNA): significant upregulation | heme oxygenase 1 mRNA level (heme oxygenase 1 mRNA): significant upregulation | γ-GCLS mRNA level (γ-GCLS mRNA): significant upregulation | Nrf2-mediated phase II enzyme (p2E) gene expression [4]: significantly activates | increase in cellular thiol levels (MBB staining) (CD11c+ BM-DCs; BM-DCs from old animals, SFN 5 μmol/L for 24 hours): 15%

CC(=O)N[C@@H](CS)C(=O)O [NAC, N-acetylcysteine]
CHS response in recipients of DNBS-pulsed DCs from old animals (BM-DCs from old mice; ex vivo NAC treatment of BM-DCs (20 mM for 1 hour), washed): restored the CHS response; also recorded: increases the CHS response; also recorded: reverses the age-related decrease in the CHS response | ear thickness (OXA-treated BALB/c mice): dose-dependent increase | TNCB response (BALB/c mice): reduced the TNCB response | binding of the contact sensitizer TNCB to cellular proteins (cellular proteins): block the binding | increase in cellular thiol content (MBB staining) (CD11c+ BM-DCs; BM-DCs, NAC exposure (FIG. 8: 20 mmol/L for 24 hours)): 25%
